# Read-outs that look alike come from different tables or passages of the source.
# How the values were obtained:
# Type in all cases: cell-based
# [1] = tested on: Pseudomonas aeruginosa (ATCC 27853) - high colistin-resistant strain; test: microbe, parasite or virus in culture
# [2] = tested on: Acinetobacter baumannii (ATCC19606); test: MIC by broth dilution
# [3] = tested on: Acinetobacter baumannii (ATCC BAA1800) colistin-resistant strain; test: microbe, parasite or virus in culture
# [4] = tested on: Proteus mirabilis urine strain WGLW4 (Wild type); test: MIC by broth dilution; conditions: 24 h
# [5] = tested on: Pseudomonas aeruginosa MRSN 1356 (NR51521); test: MIC by broth dilution; conditions: 24 h
# [6] = tested on: Burkholderia thailandensis E264 (Wild type); test: microbe, parasite or virus in culture; conditions: 24 h
# [7] = tested on: Klebsiella pneumoniae (CRE) CHS 67 (NR48569); test: MIC by broth dilution; conditions: 24 h
# [8] = tested on: Klebsiella pneumoniae (CRE) CHS 67 (NR48569) colistin-resistant strain; test: microbe, parasite or virus in culture; conditions: 24 h
# [9] = tested on: Salmonella enterica Pennsylvania, Serovar Typhimurium, Isolate 1 (NR4333) colistin-resistant strain; test: microbe, parasite or virus in culture; conditions: 24 h
# [10] = tested on: Pseudomonas aeruginosa MRSN 1380 (NR51522); test: MIC by broth dilution; conditions: 24 h
# [11] = tested on: Salmonella enterica Pennsylvania, Serovar Typhimurium, Isolate 1 (NR4333); test: MIC by broth dilution; conditions: 24 h
# [12] = tested on: Escherichia coli (ATCC 35218); test: MIC by broth dilution
# [13] = tested on: Burkholderia thailandensis E264 colistin-resistant strain; test: microbe, parasite or virus in culture
# [14] = tested on: Serratia sp. strain Ag2 (Wild-type); test: MIC by broth dilution
# [15] = tested on: Proteus mirabilis urine strain WGLW4 colistin-resistant strain; test: microbe, parasite or virus in culture; conditions: 24 h
# [16] = tested on: Pseudomonas aeruginosa (ATCC 27853) - intermediate colistin-resistant strain; test: microbe, parasite or virus in culture
# [17] = tested on: Acinetobacter baumannii (ATCC BAA1800); test: MIC by broth dilution
# [18] = tested on: Pseudomonas aeruginosa (ATCC 27853); test: MIC by broth dilution
# [19] = tested on: Pseudomonas aeruginosa MRSN 1380 (NR51522) colistin-resistant strain; test: microbe, parasite or virus in culture; conditions: 24 h
# [20] = tested on: Acinetobacter baumannii (ATCC19606) colistin-resistant strain; test: microbe, parasite or virus in culture
# [21] = tested on: Burkholderia multivorans CGD1 (wild type); test: MIC by broth dilution; conditions: 24 h
# [22] = tested on: E. coli ATCC35218 colistin^R; conditions: 30 min; reference molecule at 10 mg/mL
# [23] = tested on: Escherichia coli serotype O157 (TW07793) colistin-resistant strain; test: microbe, parasite or virus in culture; conditions: 24 h
# [24] = tested on: Escherichia coli (ATCC 35218) colistin-resistant strain; test: microbe, parasite or virus in culture
# [25] = tested on: Pseudomonas aeruginosa MRSN 1356 (NR51521) colistin-resistant strain; test: microbe, parasite or virus in culture; conditions: 24 h
# [26] = tested on: Burkholderia cepacia genomovar III, LMG16656 (wild type); test: microbe, parasite or virus in culture
# [27] = tested on: Salmonella enterica subsp. enterica Typhimurium (BAA 2721) (Wild type); test: MIC by broth dilution; conditions: 24 h
# [28] = tested on: Klebsiella pneumoniae (ATCC 19606); test: MIC by broth dilution; conditions: Klebsiella pneumoniae, ATCC19606, 24 h, entry 9
# [29] = tested on: Serratia sp. strain Ag2 colistin-resistant strain; test: microbe, parasite or virus in culture; conditions: 24 h
# [30] = tested on: Escherichia coli serotype O157 (TW07793); test: microbe, parasite or virus in culture; conditions: broth dilution, 24 h, entry 3
# [31] = tested on: Burkholderia multivorans CGD1 colistin-resistant strain; test: microbe, parasite or virus in culture; conditions: broth dilution, 24 h, entry 21
# [32] = tested on: Klebsiella pneumoniae colistin-resistant strain; test: microbe, parasite or virus in culture; conditions: Klebsiella pneumoniae, ATCC19606, 24 h
# [33] = tested on: Burkholderia cepacia genomovar III, LMG16656 colistin-resistant strain; test: microbe, parasite or virus in culture; conditions: broth dilution, 24 h, entry 25
# [34] = tested on: Salmonella enterica subsp. enterica Typhimurium (BAA 2721) intermediate colistin-resistant strain; test: microbe, parasite or virus in culture; conditions: 24 h
# [35] = tested on: colistin-resistant Gram-negative bacteria; conditions: under a fluorescent light
# Klebsiella pneumoniae = test: MIC by broth dilution; conditions: 24 h, entry 9
# [36] = tested on: Klebsiella pneumoniae (ATCC 19606) colistin-resistant strain; test: microbe, parasite or virus in culture; conditions: broth dilution, 24 h; entry 10
# [37] = Pseudomonas aeruginosa, ATCC27853, 24 h
compound,measurement,setting,value
C[C@@H](O)[C@H]1C(=O)N2C(C(=O)O)=C(S[C@@H]3CN[C@H](C(=O)N(C)C)C3)[C@H](C)[C@H]12 [Meropenem],MIC,[1]; [37],> 100 µg/mL
same,MIC,"[2]; Acinetobacter baumannii, ATCC19606, 24 h, entry 5, read-out: MIC",100 µg/mL
same,MIC,"[3]; Acinetobacter baumannii, ATCCBAA1800, 24 h",> 100 µg/mL
same,MIC,"[4]; Proteus mirabilis, entry 30, read-out: MIC",> 200 µg/mL
same,MIC,"[5]; Pseudomonas aeruginosa, entry 16, read-out: MIC",> 100 µg/mL
same,MIC,[6]; Burkholderia thailandensis,12.5 µg/mL
same,MIC,"[7]; Klebsiella pneumoniae, entry 11, read-out: MIC",> 100 µg/mL
same,MIC,[8]; Klebsiella pneumoniae,> 100 µg/mL
same,MIC,[9]; Salmonella enterica,> 100 µg/mL
same,MIC,"[10]; Pseudomonas aeruginosa, entry 18, read-out: MIC",3.13 µg/mL
same,MIC,"[11]; Salmonella enterica, entry 28, read-out: MIC",1.6 µg/mL
same,MIC,"[12]; Escherichia coli, ATCC35218, 24 h, entry 1, read-out: MIC",< 0.8 µg/mL
same,MIC,"[13]; Burkholderia thailandensis, 24 h",> 100 µg/mL
same,MIC,"[14]; Serratia, 24 h, entry 32, read-out: MIC",0.039 µg/mL
same,MIC,"[14]; Table 1, 24 h",4000 µg/mL
same,MIC,[15]; Proteus mirabilis,> 200 µg/mL
same,MIC,[16]; [37],> 100 µg/mL
same,MIC,"[17]; Acinetobacter baumannii, ATCCBAA1800, 24 h, entry 7, read-out: MIC",> 100 µg/mL
same,MIC,"[18]; Pseudomonas aeruginosa, ATCC27853, 24 h, entry 13, read-out: MIC",> 100 µg/mL
same,MIC,[19]; Pseudomonas aeruginosa,100 µg/mL
same,MIC,"[20]; Acinetobacter baumannii, ATCC19606, 24 h",> 100 µg/mL
same,MIC,"[21]; Burkholderia multivorans, entry 20, read-out: MIC",25 µg/mL
same,reduction of strain (CFU),[22],0%
same,MIC,[23]; Escherichia coli,12.5 µg/mL
same,MIC,"[24]; Escherichia coli, ATCC35218, 24 h",25 µg/mL
same,MIC,[25]; Pseudomonas aeruginosa,> 100 µg/mL
same,MIC,"[26]; Burkholderia cepacia, LMG16656, 24 h",25 µg/mL
same,MIC,"[27]; Salmonella enterica, entry 26, read-out: MIC",3.1 µg/mL
same,MIC,[28],> 100 µg/mL
same,MIC,[29]; Serratia,12.5 µg/mL
same,MIC,"[30]; Escherichia coli, read-out: MIC",1.6 µg/mL
same,MIC,"[31]; Burkholderia multivorans, read-out: MIC",> 100 µg/mL
same,MIC,[32],> 100 µg/mL
same,MIC,"[33]; Burkholderia cepacia, LMG16656, read-out: MIC",100 µg/mL
same,MIC,[34]; Salmonella enterica,6.25 µg/mL
"O=C1OC2(c3cc(I)c(O)c(I)c3Oc3c2cc(I)c(O)c3I)c2c(Cl)c(Cl)c(Cl)c(Cl)c21 [RB, 4,5,6,7-tetrachloro-2′,4′,5′,7′-tetraiodo-fluorescein]",bactericidal activity,[35],0.05 to 6.25 µg/mL
Amikacin,MIC,"[1]; broth dilution, 24 h, entry 15",>200 µg/mL
same,MIC,"[2]; 24 h, entry 5",16.0 µg/mL
same,MIC,"[3]; broth dilution, 24 h, entry 8",>100 µg/mL
same,MIC,[4]; entry 30,>200 µg/mL
same,MIC,[5]; entry 16,32.0 µg/mL
same,MIC,"[6]; broth dilution, entry 22",64.0 µg/mL
same,MIC,[7]; entry 11,16.0 µg/mL
same,MIC,"[8]; broth dilution, entry 12",>100 µg/mL
same,MIC,"[9]; broth dilution, entry 29",>100 µg/mL
same,MIC,[10]; entry 18,64.0 µg/mL
same,MIC,[11]; entry 28,1.6 µg/mL
same,MIC,"[12]; 24 h, entry 1",3.1 µg/mL
same,MIC,[13],>200 µg/mL
same,MIC,"[14]; 24 h, entry 32",>200 µg/mL
same,MIC,"[15]; broth dilution, entry 31",>200 µg/mL
same,MIC,"[16]; broth dilution, 24 h, entry 14",>100 µg/mL
same,MIC,"[17]; 24 h, entry 7",64.0 µg/mL
same,MIC,"[18]; 24 h, entry 13",32.0 µg/mL
same,MIC,"[19]; broth dilution, entry 19",>100 µg/mL
same,MIC,"[20]; broth dilution, 24 h, entry 6",>100 µg/mL
same,MIC,[21]; entry 20,200.0 µg/mL
same,reduction of strain (CFU),[22],about 3.5%
same,MIC,"[23]; broth dilution, entry 4",25.0 µg/mL
same,MIC,"[24]; broth dilution, 24 h, entry 2",>100 µg/mL
same,MIC,"[25]; broth dilution, entry 17",>100 µg/mL
same,MIC,"[26]; broth dilution, 24 h, entry 24",>100 µg/mL
same,MIC,[27]; entry 26,1.6 µg/mL
same,MIC,Klebsiella pneumoniae,4.0 µg/mL
same,MIC,"[29]; broth dilution, entry 33",>200 µg/mL
same,MIC,[30],1.6 µg/mL
same,MIC,[31],>200.0 µg/mL
same,MIC,[36],64.0 µg/mL
same,MIC,[33],>200 µg/mL
same,MIC,"[34]; broth dilution, entry 27",>100 µg/mL

# Reference: patent publication US20240325341A1, “ANTI-BACTERIAL EFFECT OF HALOGENATED FLUORESCEINS AGAINST COLISTIN-RESISTANT GRAM-NEGATIVE BACTERIA” (priority 2023, published 2024)
